# Source: a melting point compilation (Tetko et al.; mined from patent text by program, amines drawn as free bases though some values may be those of a salt)
row,Compound,melting point
1,Nc1ccc(CCNC(=O)Nc2ccc(Nc3ccccc3)cc2)cc1,> 260 °C
2,CC(C)(C)OC(=O)N1CCC(S(=O)(=O)Cl)CC1,84.6 to 85.7 °C
3,CC12CC(N3CCOCC3)C(O)CC1CCC1C2CCC2(C)C(C(=O)CCl)CCC12 (stereo not given),181 °C
4,O=Cc1nn(-c2cccc(C(F)(F)F)c2)c2c1CCCC2,88 °C
5,O=C(C(=Cc1ccc(Cl)cc1)c1ccc(Cl)cc1)c1ccc(O)cc1,132 to 136 °C
6,Cc1ccc(S(=O)(=O)N2CCCC2c2ccc(F)cc2)cc1 (racemic),128 °C
7,Cc1ccc(C(=O)NCC(N)=O)cc1-n1c(C)cc(OCc2ccccc2CNC(=O)Nc2cc(C(C)(C)C)nn2-c2ccc(O)c(Cl)c2)c(Cl)c1=O,228 to 230 °C
8,Nn1c(=O)c(=O)[nH]c2c(Br)cc(F)cc21,293 to 295 °C
9,CC(=O)SCC(C)C(=O)N(CC(=O)O)C1Cc2ccccc2C1 (stereo not given),81 to 83 °C
10,CC(C(=O)c1ccc2[nH]ccc2c1)N1CCC(O)(c2ccccc2)CC1 (stereo not given),60 to 70 °C
11,C=CCN(CC=C)C(=O)n1cnc(S(C)(=O)=O)n1,52 to 54 °C
12,CC(=O)C1CCC2C3CCC4CC(OC(=O)CI)CCC4(C)C3C(OC(=O)CI)CC12C (stereo not given),112 to 113 °C
13,C=CCN(CC=C)c1cc(CCl)nc(N)n1,53 to 55 °C
14,Nc1nc(N2CCOCC2)nc2ccccc12,216 to 219 °C
15,COc1cc(O)c(Cl)c2cc(-c3ccc(O)cc3)oc12,176 to 177 °C
16,COc1cc(COc2nn(C)cc2C(=O)O)ccc1OCc1nc(-c2ccccc2)oc1C,169 to 170 °C
17,O=S(=O)(Nc1cccnc1Cl)C(F)(F)F,120 to 122 °C
18,Nc1c(-c2cc(Cl)ccc2O)c2ccccc2[nH]c1=O,265 to 268 °C
19,C#Cc1ccc(Nc2c(C(=O)c3ccccn3)ccc(F)c2F)c(F)c1,109 to 111 °C
20,CCCCCCCCOc1ccc2c(c1OCCCCCCCC)C(=O)c1ccccc1C2=O,91 to 94 °C
21,Cc1c(C(=O)Nc2ccc(SCCCN3CCCCC3)c(C#N)c2)cnn1-c1ccc(Cl)cc1,142 °C
22,CCCCCC(Br)C(Br)CC(Br)C(Br)CCCCCCCBr (stereo not given),62 to 64 °C
23,COCc1ccc2cccnc2c1Cl,78 to 79 °C
24,S=C1CNC(=S)c2cc(Cl)ccc2N1,273 to 274 °C
25,N#Cc1c(Cl)c(Cl)c(NCCN)c(Cl)c1Cl,140 to 144 °C

row,Compound,melting point
1,COc1cc2c(cc1OCc1ccccc1)CC(C)(C)N=C2C,87.9 to 90 °C
2,CCCNC(=O)C(C)Cc1ccc2cccc(Cc3ccc(C(=O)NS(=O)(=O)c4ccccc4)cc3OC)c2c1 (stereo not given),214 to 218 °C
3,CN(C)C(=S)Oc1ccc(CC#N)cc1,120 to 124 °C
4,O=S(=O)(NC=NCCCOc1cccc(CN2CCCCC2)c1)c1ccc(Cl)cc1,75 to 79 °C
5,Cc1ccc(C2CCN(C(=O)Nc3ccc4nc(CN(C(C)C)C(C)C)ccc4c3)CC2)cc1,184 to 186 °C
6,CCn1cc(C(=O)NC2CCCc3ccccc32)c(=O)c2cnc(N3CCCC3)nc21 (stereo not given),284 to 286 °C
7,COCC(C#N)=Cc1cc(OC)c(OC)c(OC)c1,79 to 81 °C
8,COc1ccc(-c2cc(=S)n(C)c(=O)n2C)cc1OC,146 to 148 °C
9,COc1ccc2nc(N3CCNCC3)cc(C(F)(F)F)c2c1,130 °C
10,CC(C)(ON1C(=O)c2ccccc2C1=O)C(=O)O,133 to 135 °C
11,COC(=O)c1cnn(C)c1C(=O)Nc1ccn2nc(-c3ccccc3)nc2c1,243 to 247 °C
12,CCCCCCCCCCCCCCN(C)c1cc(OCC)c(N)cc1C(=O)O,80 to 81 °C
13,CCCCn1c(=O)c2c(NC)n[nH]c2n(Cc2ccc([N+](=O)[O-])cc2)c1=O,277 to 279 °C
14,O=c1c2cccnc2c(-c2cccc(Cl)c2)cn1Cc1ccccc1,149 to 150 °C
15,CN(N)c1cnn(-c2ccccc2)c(=O)c1Cl,128 to 130 °C
16,O=C(Nc1ccc(C(=O)N2C=C3CC=CN3Cc3ccccc32)cc1)c1ccccc1F,257 to 260 °C
17,O=C1Nc2cccc(Cl)c2C(=O)N2CC[C@@H]12,225 to 228 °C
18,Cc1nc(-c2ccc(Br)cc2)n(-c2ccc(S(C)(=O)=O)cn2)n1,211 to 212 °C
19,CCOc1nn(-c2ccc(C(F)(F)F)cn2)cc1CCCOc1cccc(CC(=O)O)c1,134 to 135 °C
20,CC1(COc2ccc(OCCN3CC(COc4ccccc4)OC3=O)cc2)OCCO1 (stereo not given),75 to 77 °C
21,COc1ccc(Cn2cnc3c(=O)[nH]c(N)nc32)cc1,> 300 °C
22,Fc1ccc2c(CN3CCN(c4ccc(Cl)cc4)CC3)n[nH]c2c1,217 to 219 °C
23,CNCC(O)c1ccc(C)o1 (stereo not given),40 to 45 °C
24,COC(=O)c1cc(Nc2ccc(C)cc2)c(C(=O)OC)cc1Nc1ccc(C)cc1,205 to 207 °C
25,O=Cc1ccc(C=Cc2ccccc2)cc1,112 to 113 °C
